In ChEMBL document CHEMBL2448811, “Comparison of the accuracy of experimental and predicted pKa values of basic and acidic compounds” (Pharm Res, 2013):
Where a SMILES comes first, the peptide text is derived from it.

Assay: physchem
Details: not given
For CN/C(=C/[N+](=O)[O-])NCCSCc1ccc(CN(C)C)o1, the pKa was 8.47. CC(NC(C)(C)C)C(=O)c1cccc(Cl)c1 (stereo not given) [BUPROPION] showed a pKa of 8.35.

Same assay, conditions: pKa
Work on Nc1ccc(C(=O)O)c(O)c1 [AMINOSALICYLIC ACID] yielded a pKa of 3.62. For CCN1CCCC1CNC(=O)c1cc(S(=O)(=O)CC)c(N)cc1OC (stereo not given) [AMISULPRIDE], the pKa was 9.37. Compound CCCCNc1cc(C(=O)O)cc(S(N)(=O)=O)c1Oc1ccccc1 [BUMETANIDE] has a pKa of 3.83. For CN(C)CC/C=C1\c2ccccc2COc2ccccc21 [E-DOXEPIN], the pKa was 9. With CN1CCN(c2c(F)cc3c(=O)c(C(=O)O)cn(CCF)c3c2F)CC1 [FLEROXACIN] the pKa was 8.8. In the case of COc1c(N2CCNC(C)C2)c(F)cc2c(=O)c(C(=O)O)cn(C3CC3)c12 (stereo not given) [GATIFLOXACIN], the pKa is reported as 8.74.

Assay: physchem
Details: not given
Remark: another data set of the same source
With CN(C)[C@@H]1C(=O)C(C(N)=O)=C(O)[C@@]2(O)C(O)=C3C(=O)c4c(O)cccc4[C@@](C)(O)C3[C@H](O)C12 (stereo not given in full) the pKa was 7.32.

Assay: physchem
Details: not given
Remark: another data set of the same source
In the case of CC(Cc1ccc(O)c(O)c1)(NN)C(=O)O (stereo not given), the pKa is reported as 3.5. For CCCCC1CCN(CCCC(=O)c2ccccc2C)CC1, the pKa was 7.85. With CN/C(=C/[N+](=O)[O-])NCCSCc1ccc(CN(C)C)o1 the pKa was 9.6. In the case of CC1CCN(CC(=O)Nc2nc(-c3ccccc3)cs2)CC1, the pKa is reported as 10.5. NC(=O)C1CCN(CC(=O)Nc2nc(-c3ccccc3)cs2)CC1 showed a pKa of 10.2. Cc1ccc(C)c(N2CCN(C3CCCC(C)C3)CC2)c1 (stereo not given) showed a pKa of 7.16. With O=C(O)c1ccccc1C(=O)Nc1nc(-c2ccccc2)cs1 the pKa was 3.4. For COc1ccc(C(=O)CCC(=O)O)cc1, the pKa was 4.7. CC1CN(c2c(F)c(N)c3c(=O)c(C(=O)O)cn(C4CC4)c3c2F)CC(C)N1 (stereo not given) showed a pKa of 6.1. For Cc1cnc(NC(=O)CN2CCCCC2)s1, the pKa was 10.6. With O=C(O)c1ccccc1-c1ncc(-c2ccccc2)o1 the pKa was 2.9. O=C(CN1CCCCC1)Nc1nc(-c2ccc(Cl)cc2)cs1 showed a pKa of 10.4. Work on CCOC(=O)c1csc(NC(=O)CN2CCCCC2)n1 yielded a pKa of 9.9. Compound Cc1nc(NC(=O)CCCC(=O)O)sc1C has a pKa of 2.5. For O=C(O)CSCC(=O)Nc1nc(-c2ccccc2)c(-c2ccccc2)s1, the pKa was 4. For O=C(O)c1cc(-c2ccccc2)nc(O)n1, the pKa was 2.5. Work on FC(F)(F)c1cccc(N2CCN(C3C4CC5CC(C4)CC3C5)CC2)c1 (stereo not given) yielded a pKa of 7.45. Work on Nc1cc(-c2ccccc2)nc2ccc(Br)cc12 yielded a pKa of 7.4. Work on Nc1cc(-c2ccccc2)nc2ccc(Cl)cc12 yielded a pKa of 7.4. In the case of NCc1cc(-c2ccccc2)nc2ccccc12, the pKa is reported as 8.37. Compound O=C(CN1CCCCC1)Nc1ncc(Cc2cccc3ccccc23)s1 has a pKa of 10.5. With c1cnc(N2CCN(C3CC4CCC3C4)CC2)nc1 (stereo not given) the pKa was 8. In the case of CC[C@]12CCCN3CCc4c(n(c5ccccc45)[C@@](O)(C(=O)OC)C1)C32 (stereo not given in full), the pKa is reported as 7.9. Work on Cc1c(Cl)cccc1-n1ncc(C(=O)Nc2nccs2)c1C1CCNCC1 yielded a pKa of 9.4. For Cc1ccc(C)c(N2CCN(C3C4CC5CC(C4)CC3C5)CC2)c1 (stereo not given), the pKa was 7.6. Compound Cc1ccc(C)c(N2CCN(C3CCC(C)C3)CC2)c1 (stereo not given) has a pKa of 7.5. Work on Cc1ccc(C)c(N2CCN(C3CCCCCC3)CC2)c1 yielded a pKa of 7.54. CC1CCC(N2CCN(c3ccccc3F)CC2)CC1 (stereo not given) showed a pKa of 7.4. Cc1ccc(-n2ncc(C(=O)Nc3nccs3)c2C2CCNCC2)cc1C showed a pKa of 9.5. With Cc1cccc(-n2ncc(C(=O)Nc3nccs3)c2C2CCNCC2)c1 the pKa was 9.5. For COc1ccc2nc(NC(=O)CN3CCC(C)CC3)sc2c1, the pKa was 10. Work on CC1CCN(CC(=O)Nc2ncc(Cc3cccc4ccccc34)s2)CC1 yielded a pKa of 10.6. CN(C)CCNC(=O)c1cc(-c2ccccc2)nc2ccccc12 gave a pKa of 8.3. Work on COc1cc(CN2CCC3(C=Cc4ccccc43)CC2)cc(OC)c1OC yielded a pKa of 8.4. COc1ccc2nc(-c3ccccc3)cc(N)c2c1 showed a pKa of 8.7. In the case of COc1ccc2nc(NC(=O)CN3CCCCC3)sc2c1, the pKa is reported as 10. In the case of CC1OC(O[C@H]2/C=C/C=C/C=C/C=C/C=C/C=C/C=C/[C@H](C)[C@@H](O)[C@@H](C)[C@H](C)OC(=O)C[C@H](O)C[C@H](O)CC[C@@H](O)[C@H](O)C[C@H](O)C[C@]3(O)C[C@H](O)[C@@H](C(=O)O)[C@H](C2)O3)C(O)C(N)C1O (stereo not given in full), the pKa is reported as 3.1. O=C1NCN(c2ccccc2)C12CCN(CCCC(c1ccc(F)cc1)c1ccc(F)cc1)CC2 gave a pKa of 7.7. With O=C(N[C@H]1CCCC[C@H]1C(=O)O)c1ccccc1 the pKa was 3.3. Work on Nc1c2c(nc3ccccc13)-c1ccccc1CC2 yielded a pKa of 8.1. C=CC1=C(C(=O)O)N2C(=O)[C@@H](NC(=O)/C(=N\O)c3csc(N)n3)[C@H]2SC1 gave a pKa of 3.35. Work on Nc1ccc(C(=O)O)c(O)c1 [AMINOSALICYLIC ACID] yielded a pKa of 3.4. In the case of CCN1CCCC1CNC(=O)c1cc(S(=O)(=O)CC)c(N)cc1OC (stereo not given) [AMISULPRIDE], the pKa is reported as 9.3. With CN(C)CCC=C1c2ccccc2CCc2ccccc21 [AMITRIPTYLINE] the pKa was 8.2. CN(C)CCC(c1ccc(Br)cc1)c1ccccn1 (stereo not given) [BROMPHENIRAMINE] showed a pKa of 10.1. With CCCCNc1cc(C(=O)O)cc(S(N)(=O)=O)c1Oc1ccccc1 [BUMETANIDE] the pKa was 3.6. Cn1nnnc1SCC1=C(C(=O)O)N2C(=O)[C@@H](NC(=O)[C@H](O)c3ccccc3)[C@H]2SC1 [CEFAMANDOLE] gave a pKa of 3.4. For CCN(CC)CCOC(=O)c1ccc(N)cc1Cl [CHLOROPROCAINE], the pKa was 9. CN(C)CCCN1c2ccccc2CCc2ccc(Cl)cc21 [CLOMIPRAMINE] showed a pKa of 9.1. Compound CN1CCN(C2=Nc3cc(Cl)ccc3Nc3ccccc32)CC1 [CLOZAPINE] has a pKa of 7.8. Compound CN(C)CCC=C1c2ccccc2C=Cc2ccccc21 [CYCLOBENZAPRINE] has a pKa of 8.24. O=C(CCCN1CC=C(n2c(=O)[nH]c3ccccc32)CC1)c1ccc(F)cc1 [DROPERIDOL] showed a pKa of 7.6. CCCCOc1ccc(C(=O)CCN2CCCCC2)cc1 [DYCLONINE] gave a pKa of 9. CN(C)CC/C=C1\c2ccccc2COc2ccccc21 [E-DOXEPIN] gave a pKa of 8.7. Compound C=C(CC)C(=O)c1ccc(OCC(=O)O)c(Cl)c1Cl [ETHACRYNIC ACID] has a pKa of 3.1. With CC(NCCC(c1ccccc1)c1ccccc1)c1ccccc1 (stereo not given) [FENDILINE] the pKa was 9.3. With CN1CCN(c2c(F)cc3c(=O)c(C(=O)O)cn(CCF)c3c2F)CC1 [FLEROXACIN] the pKa was 5.5. With CC(C(=O)O)c1ccc(-c2ccccc2)c(F)c1 (stereo not given) [FLURBIPROFEN] the pKa was 4.3. COc1c(N2CCNC(C)C2)c(F)cc2c(=O)c(C(=O)O)cn(C3CC3)c12 (stereo not given) [GATIFLOXACIN] gave a pKa of 9.4. For O=C(CCCN1CCC(O)(c2ccc(Cl)cc2)CC1)c1ccc(F)cc1 [HALOPERIDOL], the pKa was 8.5. For CCn1cc(C(=O)O)c(=O)c2cc(F)c(N3CCNC(C)C3)c(F)c21 (stereo not given) [LOMEFLOXACIN], the pKa was 5.74. CN1CCCCC1CCN1c2ccccc2Sc2ccc([S+](C)[O-])cc21 (stereo not given) [MESORIDAZINE] gave a pKa of 9.5. In the case of CC(CN(C)C)CN1c2ccccc2Sc2ccccc21 (stereo not given) [METHYLPROMAZINE], the pKa is reported as 8.5. Compound Clc1ccc2c(c1)N=C(N1CCNCC1)c1ccccc1N2 [N-DESMETHYLCLOZAPINE] has a pKa of 8.9. O=C(O)c1cccnc1 [NIACIN] showed a pKa of 2.4. In the case of CCn1cc(C(=O)O)c(=O)c2cc(F)c(N3CCNCC3)cc21 [NORFLOXACIN], the pKa is reported as 6.05. For O=C1CCCN1CC#CCN1CCCC1 [OXOTREMORINE], the pKa was 8.4. O=c1[nH]c2ccccc2n1C1CCN(CCCC(c2ccc(F)cc2)c2ccc(F)cc2)CC1 [PIMOZIDE] gave a pKa of 7.45. Work on CC(CN1c2ccccc2Sc2ccccc21)N(C)C (stereo not given) [PROMETHAZINE] yielded a pKa of 8.7. CCOc1cc(CC(=O)N[C@@H](CC(C)C)c2ccccc2N2CCCCC2)ccc1C(=O)O [REPAGLINIDE] gave a pKa of 3.75. Work on CN[C@H]1CC[C@@H](c2ccc(Cl)c(Cl)c2)c2ccccc21 [SERTRALINE] yielded a pKa of 8. CC(C(=O)O)c1ccc(C(=O)c2cccs2)cc1 (stereo not given) [SUPROFEN] gave a pKa of 4.3. With CC/C(=C(\c1ccccc1)c1ccc(OCCN(C)C)cc1)c1ccccc1 [TAMOXIFEN] the pKa was 10. In the case of CN(C/C=C/C#CC(C)(C)C)Cc1cccc2ccccc12 [TERBINAFINE], the pKa is reported as 7.12. CC(C)(C)c1ccc(C(O)CCCN2CCC(C(O)(c3ccccc3)c3ccccc3)CC2)cc1 (stereo not given) [TERFENADINE] gave a pKa of 8.5. CCCCNc1ccc(C(=O)OCCN(C)C)cc1 [TETRACAINE] showed a pKa of 8.6. For CC(CN(C)C)CN1c2ccccc2CCc2ccccc21 (stereo not given) [TRIMIPRAMINE], the pKa was 8.5. In the case of Cc1ccc(/C(=C\CN2CCCC2)c2ccccn2)cc1 [TRIPROLIDINE], the pKa is reported as 9.25. Work on CCOC(=O)C1=C[C@]2(CC)CCCN3CCc4c(n1c1ccccc41)[C@@H]32 [VINPOCETINE] yielded a pKa of 7.1.

Assay: physchem
Details: not given
Remark: another data set of the same source
Compound CC(Cc1ccc(C(C)(C)C)cc1)CN1C[C@@H](C)O[C@@H](C)C1 (stereo not given in full) [FENPROPIMORPH] has a pKa of 7.34. In the case of CCC(=O)O[C@](Cc1ccccc1)(c1ccccc1)[C@H](C)CN(C)C [PROPOXYPHENE], the pKa is reported as 9.06. Compound CCN(C)C(=O)Oc1cccc([C@H](C)N(C)C)c1 [RIVASTIGMINE] has a pKa of 8.8.

Same assay, conditions: pKa
Cc1cc(=O)oc2cc(O[C@@H]3O[C@H](CO)[C@@H](O)[C@H](O)[C@H]3O)ccc12 showed a pKa of 2.82. CN(C)CCO[C@]1(c2ccccc2)C[C@H]2CC[C@]1(C)C2(C)C gave a pKa of 9.61. With CO[C@@H]1[C@@H](O[C@@H]2O[C@H](C)[C@@H](O)[C@H](N(C)C)[C@H]2O)[C@@H](CC=O)C[C@@H](C)C(=O)/C=C/[C@@H]2O[C@H]2C[C@@H](C)OC(=O)C[C@H]1OC(C)=O the pKa was 8.44. Compound N[C@@H](Cc1c[nH]c2ccccc12)C(=O)N[C@@H](Cc1ccccc1)C(=O)O (H-Trp-Phe-OH) has a pKa of 3.18. For N[C@@H](Cc1c[nH]c2ccccc12)C(=O)N[C@@H](Cc1c[nH]c2ccccc12)C(=O)O (H-Trp-Trp-OH), the pKa was 3.38. In the case of CCCCC[C@H](O)/C=C/[C@H]1[C@H](O)CC(=O)[C@@H]1CCCCCCC(=O)O [ALPROSTADIL], the pKa is reported as 4.87. Work on N[C@@H](CC(=O)O)C(=O)O [ASPARTIC ACID] yielded a pKa of 9.67. With CCN(CC)C(=O)Nc1ccc(OCC(O)CNC(C)(C)C)c(C(C)=O)c1 (stereo not given) [CELIPROLOL] the pKa was 9.66. Compound CCCCC[C@H](O)/C=C/[C@H]1[C@H](O)CC(=O)[C@@H]1C/C=C\CCCC(=O)O [DINOPROSTONE] has a pKa of 4.77. Work on CNC[C@H](O)[C@@H](O)[C@H](O)[C@H](O)CO [MEGLUMINE] yielded a pKa of 9.6. Compound N[C@@H](Cc1ccccc1)C(=O)O [PHENYLALANINE] has a pKa of 9.08. With CNC(=C[N+](=O)[O-])NCCSCc1ccc(CN(C)C)o1 [RANITIDINE] the pKa was 8.31. CC[C@H]1OC(=O)C[C@@H](O)[C@H](C)[C@@H](O[C@@H]2O[C@H](C)C[C@H](N(C)C)[C@H]2O)[C@@H](CC=O)C[C@@H](C)C(=O)/C=C/C(C)=C/[C@@H]1C [REPROMICIN] gave a pKa of 8.83. In the case of CC[C@H]1OC(=O)[C@H](C)[C@@H](O[C@H]2C[C@@](C)(OC)[C@@H](O)[C@H](C)O2)[C@H](C)[C@@H](O[C@@H]2O[C@H](C)C[C@H](N(C)C)[C@H]2O)[C@](C)(O)C[C@@H](C)/C(=N\OCOCCOC)[C@H](C)[C@@H](O)[C@]1(C)O [ROXITHROMYCIN], the pKa is reported as 9.27.
